The source of these data is PubChem BioAssay (NCI).

Among the test systems are SK-MEL-5 melanoma; MALME-3M melanoma; HT29 colon; HL-60(TB) leukemia; OVCAR-8 ovarian; NCI/ADR-RES ovarian; OVCAR-5 ovarian; M14 melanoma; SK-MEL-28 melanoma; RXF 393 renal.
What all share (experiment): NCI anticancer screen, dose series, 48 h

Values joined by “and” are separate entries in the source; they are usually repeats but may differ in a detail not shown here. Equal values may be shown once.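 Grown in 96-well plates, cells were treated for 48 hours with each compound at five concentrations. Insufficient inhibition: endpoint recorded as highest concentration tested. Abbreviation: GI50, concentration required for 50% inhibition of growth. TGI: concentration producing complete growth inhibition.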

Regarding `CN(C)CCNc1ccc2ncn3c4ccc(O)cc4c(=O)c1c23`, the TGI with SK-MEL-5 melanoma stood at 8.52 µM; in the assay with MALME-3M melanoma, 14.4 µM; with HT29 colon, 7.39 µM; with HL-60(TB) leukemia, 13.6 µM; in the assay with OVCAR-8 ovarian, 7.76 µM; in the assay on NCI/ADR-RES ovarian, 18.9 µM. The TGI amounted to 15 µM in the assay with OVCAR-5 ovarian, 8.47 µM in the assay with M14 melanoma, 18 µM in the assay on SK-MEL-28 melanoma and 2.58 µM in the assay with RXF 393 renal.

On to `COc1cc(CCC[P+](c2ccccc2)(c2ccccc2)c2ccccc2)c(OC)c2c1OCO2`, for which the GI50 in the assay with SK-MEL-5 melanoma is 1.21 µM; in the assay with MALME-3M melanoma it was 0.602 µM; with HT29 colon it was 0.812 µM; in the assay with HL-60(TB) leukemia it was 0.387 µM; with OVCAR-8 ovarian, 2.36 µM; in the assay with NCI/ADR-RES ovarian, 77.5 µM. Further, the GI50 in the assay on OVCAR-5 ovarian was 2.38 µM; with M14 melanoma, 1.8 µM; with SK-MEL-28 melanoma, 0.875 µM; in the assay on RXF 393 renal it was 2.01 µM. The TGI in the assay on SK-MEL-5 melanoma is 2.5 µM; in the assay with MALME-3M melanoma it was 6.92 µM; in the assay with HT29 colon, 41 µM; in the assay with HL-60(TB) leukemia, 2.35 µM; in the assay with OVCAR-8 ovarian, 24.2 µM; with NCI/ADR-RES ovarian, > 100 µM. In addition, the TGI with OVCAR-5 ovarian was 37 µM; in the assay on M14 melanoma, 13.7 µM; in the assay on SK-MEL-28 melanoma, 14 µM; in the assay with RXF 393 renal it was 8.43 µM.

In the case of `NC(=O)CC1OC(=O)Cc2cc3c(c(O)c21)C(=O)c1c(O)cccc1C3=O` (configuration not stated), the TGI in the assay with SK-MEL-5 melanoma, with MALME-3M melanoma, in the assay with HT29 colon, in the assay with HL-60(TB) leukemia, with OVCAR-8 ovarian and in the assay with NCI/ADR-RES ovarian was > 100 µM each time. Further, the TGI in the assay on OVCAR-5 ovarian, in the assay on M14 melanoma and with SK-MEL-28 melanoma was > 100 µM in each case.

Take `O=C1Nc2c(Cl)cc(Cl)cc2/C1=N/N=C/c1ccco1`: the TGI was > 100 µM in the assay with SK-MEL-5 melanoma; > 100 µM in the assay with MALME-3M melanoma; > 100 µM in the assay on HT29 colon; > 100 µM with HL-60(TB) leukemia; > 100 µM with OVCAR-8 ovarian; 82.1 µM with NCI/ADR-RES ovarian. The TGI in the assay with OVCAR-5 ovarian, with M14 melanoma, in the assay on SK-MEL-28 melanoma and with RXF 393 renal was > 100 µM in each case.

Consider `CCOC(=O)c1ccc(-n2cnc(-c3ccc([N+](=O)[O-])cc3)c2)cc1`, for which the TGI was 74.5 µM in the assay with SK-MEL-5 melanoma; > 100 µM with MALME-3M melanoma; > 100 µM in the assay with HT29 colon; > 100 µM in the assay on HL-60(TB) leukemia; > 100 µM with OVCAR-8 ovarian; > 100 µM in the assay on NCI/ADR-RES ovarian. The TGI with OVCAR-5 ovarian, in the assay with M14 melanoma and in the assay with SK-MEL-28 melanoma was > 100 µM each time.

As to `COc1cc(-n2ccnc2-c2ccc3ccccc3c2)cc(OC)c1OC`, the GI50 with SK-MEL-5 melanoma is < 0.0198 µM; in the assay on MALME-3M melanoma, 3.66 µM; in the assay with HT29 colon, < 0.0222 µM; in the assay with HL-60(TB) leukemia, 0.0232 µM; in the assay on OVCAR-8 ovarian it was 0.398 µM; in the assay on OVCAR-5 ovarian, 0.408 µM. Further, the GI50 in the assay with M14 melanoma is 0.0376 µM; with SK-MEL-28 melanoma, 0.688 µM; in the assay on RXF 393 renal it was 0.17 µM. In addition, the TGI in the assay on SK-MEL-5 melanoma was 12.3 µM; in the assay with MALME-3M melanoma, 31.9 µM; in the assay on HT29 colon it was > 37.6 µM; in the assay on HL-60(TB) leukemia, > 37.6 µM; with OVCAR-8 ovarian, > 53.1 µM; in the assay with NCI/ADR-RES ovarian it was 0.472 µM. Besides, the TGI with OVCAR-5 ovarian was > 93.6 µM; in the assay on M14 melanoma, 1.02 µM; in the assay with SK-MEL-28 melanoma, 38.3 µM; in the assay on RXF 393 renal it was 0.749 µM.

On to `O=C(O)Cc1cccc2c(=O)cc(-c3ccccc3)oc12`, for which the GI50 was 407 µM in the assay on SK-MEL-5 melanoma; 725 µM in the assay on MALME-3M melanoma; 489 µM with HT29 colon; 142 µM with HL-60(TB) leukemia; 84.5 µM in the assay with OVCAR-8 ovarian; 194 µM with NCI/ADR-RES ovarian. Also, the GI50 in the assay with OVCAR-5 ovarian is > 1000 µM; with M14 melanoma, 519 µM; in the assay with SK-MEL-28 melanoma, 533 µM; in the assay with RXF 393 renal, > 862 µM. Moreover, the TGI in the assay with SK-MEL-5 melanoma was 250 µM and > 876 µM; with MALME-3M melanoma it was > 1000 µM; with HT29 colon, > 1000 µM; in the assay on HL-60(TB) leukemia it was > 250 µM and 193 µM; in the assay with OVCAR-8 ovarian, > 1000 µM; with NCI/ADR-RES ovarian, 250 µM and > 1000 µM. The TGI in the assay with OVCAR-5 ovarian was 250 µM and > 1000 µM; with M14 melanoma it was > 1000 µM; in the assay with SK-MEL-28 melanoma, > 1000 µM; with RXF 393 renal it was 250 µM and > 1000 µM.

As for `CC1=C(C#N)C23C(=O)N(c4ccccc4)C(=O)C2=C(O)C=CC3(O)N1Cc1ccc(Cl)cc1Cl` (configuration not stated), the GI50 in the assay on SK-MEL-5 melanoma is 5.19 µM; in the assay with MALME-3M melanoma it was 3.14 µM; with HT29 colon it was 1.97 µM; in the assay on HL-60(TB) leukemia it was 3.18 µM; in the assay on OVCAR-8 ovarian, 3.52 µM; with NCI/ADR-RES ovarian, 16.2 µM. Besides, the GI50 with OVCAR-5 ovarian was 5 µM; in the assay on M14 melanoma it was 3.43 µM; in the assay on SK-MEL-28 melanoma it was 1.53 µM; with RXF 393 renal, 1.87 µM. The TGI in the assay with SK-MEL-5 melanoma was determined as 17 µM; in the assay on MALME-3M melanoma, 9.95 µM; with HT29 colon, 4.84 µM; in the assay with HL-60(TB) leukemia, 6.82 µM; with OVCAR-8 ovarian, 13.8 µM; in the assay with NCI/ADR-RES ovarian, 39.5 µM. For the same compound, the TGI was 23.4 µM in the assay on OVCAR-5 ovarian, 16.1 µM in the assay on M14 melanoma, 3.4 µM in the assay with SK-MEL-28 melanoma and 3.87 µM in the assay with RXF 393 renal.

Consider `CC1=CCC2CC1C(C(=O)c1c[nH]c3ccccc13)=NC2(C)C` (configuration not stated), for which the TGI in the assay on SK-MEL-5 melanoma, in the assay on MALME-3M melanoma, in the assay on HT29 colon, in the assay with HL-60(TB) leukemia, with OVCAR-8 ovarian and with NCI/ADR-RES ovarian was > 100 µM throughout. Further, the TGI in the assay on OVCAR-5 ovarian, with M14 melanoma and with SK-MEL-28 melanoma was > 100 µM in each case.

`COc1ccc2c(c1)CCC1C2CC[C@@]2(C)C1CC[C@@H]2NC(=O)Cc1ccc(O)c(O)c1` (some centres not stated): the GI50 with SK-MEL-5 melanoma is 8.96 µM; in the assay on MALME-3M melanoma, 9.13 µM; with HT29 colon it was 10.3 µM; with OVCAR-8 ovarian, 8.71 µM; in the assay on NCI/ADR-RES ovarian, 10.7 µM; with OVCAR-5 ovarian, 19.8 µM. Also, the GI50 with SK-MEL-28 melanoma was 9.9 µM; with RXF 393 renal it was 10.7 µM. In addition, the TGI in the assay with SK-MEL-5 melanoma turned out to be 21.8 µM; with MALME-3M melanoma, 41 µM; in the assay with HT29 colon, 25.3 µM; with OVCAR-8 ovarian, 30.8 µM; in the assay with NCI/ADR-RES ovarian, 33.6 µM; in the assay with OVCAR-5 ovarian, 37.7 µM. Moreover, the TGI is 24.2 µM with SK-MEL-28 melanoma and 27.3 µM in the assay with RXF 393 renal.
